Like-named read-outs stand apart in the source and are kept apart here.
How the values were obtained:
[1] = tested on: OVCAR3 cells; experiment: MTT cytotoxicity assay, OVCAR3; type: cell-based, human; settings: for IC50: Homo sapiens, OVCAR-3, OVCAR3, 72 h
Method: (§1) All cell lines were obtained from the American Type Culture Collection (ATCC) and cultured in the specified medium supplemented with 10% fetal bovine serum, 100 IU/mL penicillin, and 100 μg/mL streptomycin at 37°C in a humidified 5% CO2/95% air incubator. Synthesis of new compounds is described in S1 File, and >95% purity of RA475, Up284 and its analogs were confirmed by NMR and MS. To assess drug cytotoxicity, cells were seeded at 2,500 cells/well (10,000 cells/well for MM lines) in 100 μL medium in 96-well plate as triplicates and after 24 h treated with compounds for a further 72 h. To assess cytotoxicity, the cells were incubated for 2 h at 37°C according to the manufacturer’s protocol with the Thiazolyl Blue Tetrazolium Bromide (20 μL/well of 5 mg/mL stock solution in water) (Sigma, M5655) and A570 measured using a Benchmark Plus microplate spectrophotometer (BIO-RAD). IC50 was estimated using Graphpad Prism 7 software.
To study the effect of RA475 in combination with approved therapeutics (DNA damaging agents or radiation) an MTT assay was performed using various concentrations of both drugs. Briefly PEA1 and OVCAR3 cells were each treated with drug combination (RA475 plus cisplatin) for 72 h in a checker board analysis and cell viability was measured using MTT assay. The data were analyzed and plotted using the Synergy Finder web application.

[2] = tested on: HT29; experiment: MTT cytotoxicity assay, HT29; type: cell-based; settings: Homo sapiens, HT-29, HT29, 72 h
Method: as §1

[3] = tested on: PEA2; experiment: MTT cytotoxicity assay, PEA2; type: cell-based; settings: Homo sapiens
Method: as §1
Modifications of Up284 were sought to improve its drug-like properties without significant compromise of its activity in vivo, and several new compounds were synthesized (S1 File). Based on our prior studies of its pharmacophore, the central ring nitrogen was the most logical for addition of charged moieties, including RA475 and RA484. We also examined a change to either 3,4 spiro rings (RA477, RA479), or addition of 3-Fluoro substitutions (RA482) (S1 File). Our focus is developing iRPN13 to treat ovarian cancer resistant to standard of care drug regimens.

[4] = tested on: HCT116; experiment: MTT cytotoxicity assay, HCT116; type: cell-based; settings: Homo sapiens, HCT-116, HCT116, 72 h
Method: as §1

[5] = tested on: A549; experiment: MTT cytotoxicity assay, A549; type: cell-based; settings: Homo sapiens, A549, 72 h
Method: as §1

[6] = tested on: TC1; experiment: MTT cytotoxicity assay, TC1; type: cell-based; settings: TC-1, TC1, 72 h
Method: as §1

[7] = tested on: MC38; experiment: MTT cytotoxicity assay, MC38; type: cell-based; settings: Mus musculus, MC-38, MC38, 72 h
Method: as §1

[8] = tested on: high molecular weight polyubiquitinated proteins in SKOV3 cells; experiment: Anti-ubiquitin immunoblot, SKOV3; type: cell-based; settings: Up284 and RA475 0.5 and 1 μM, RA190 1 μM
Source text: Cell lysate prepared in MPER (Pierce) from each sample was normalized by total protein concentration using the bicinchoninic acid assay and bovine serum albumin standards. Normalized samples were subjected to SDS-PAGE, transferred to PVDF membranes and analyzed by Western blot using antibodies specific to ubiquitin (P4D1, sc-8017, Santa Cruz), PARP (#9542, […]), actin (#66009, Protein Tech Group), Tubulin(#66031, Protein Tech Group), ADRM1/RPN13 (D9Z1U, #12019, Cell Signaling), USP14 (Cell Signal, # 8159), Annexin V (#559763, BD Pharmingen), and for secondary antibodies we utilized either horseradish peroxidase (HRP)-linked anti-mouse IgG or anti-rabbit IgG (GE Healthcare UK Ltd), HRP-linked streptavidin (N100, Thermo Fisher) at the recommended dilution (1:5000).
Accumulation of high molecular weight polyubiquitinated proteins (polyUb) is a classical phenomenon of proteasome function inhibition due to the stabilization of its substrate.
Fig 3 Impact of RA475 on proteasome function. […] Actin was used as loading control. […] C) 4T1 and HCC1806 cells stably expressing 4UbFL were treated with compounds at indicated doses for 4 h and imaged by IVIS200 after the addition of luciferin substrate (50 μL, 7mg/mL in PBS). […] After a 4 h incubation, the cells were lysed and the luciferase activity in each cell lysate was determined with a luciferase assay kit (Promega) according to the manufacturer’s instructions. Bioluminescence was measured by using a luminometer (Glomax Multidetection system, Promega) E) A patch was shaved of hair on one leg of CD-1 mice, and 10 μg 4UbFL plasmid in 20 μL of PBS was injected into the quadriceps femoralis muscle followed immediately by injection of the 2 Needle Array to 5 mm depth encompassing the injection site and square wave electroporation (ElectroSquarePorator 833, BTX-2 Needle array 5mm gap, Harvard apparatus) delivered as eight pulses at 106V for 20 ms with 200 ms intervals. […] Equally sized areas were analyzed using Living Image 2.20 software. […]

[9] = tested on: HCC1395; experiment: MTT cytotoxicity assay, HCC1395; type: cell-based; settings: Homo sapiens, HCC1395, 72 h
Method: as §1

| Compound | IC50 [1] [nM] | IC50 [2] [nM] | IC50 ([3]; PEA2, 72 h, MTT, read-out: IC50) [nM] | IC50 [4] [nM] | IC50 [5] [nM] | IC50 [6] [nM] | IC50 [7] [nM] | accumulation of high molecular weight polyubiquitinated proteins [8] | IC50 ([9]; MTT, read-out: IC50) [nM] | synergy with cisplatin for cytotoxicity ([1]; OVCAR3, checker board, 72 h, Synergy Finder) | IC50 ([3]; 72 h) [nM] | IC50 [9] [nM] |
| --- | --- | --- | --- | --- | --- | --- | --- | --- | --- | --- | --- | --- |
| N#Cc1ccc(/C=C2/C(=O)/C(=C/c3ccc(C#N)cc3)C23CCNCC3)cc1 [Up284, reference compound] | 50 | 43 | 144 | 110 | 90 | 140 | 60 | robust accumulation of polyUb | 120 |  |  |  |
| Cl.Cl.N#Cc1ccc(/C=C2/C(=O)/C(=C/c3ccc(C#N)cc3)C23CCN(C(=N)N)CC3)cc1 [RA475, 1,3-bis((E)-4-cyanobenzylidene)-2-oxo-7-azaspiro[3.5]nonane-7-carboximidamide dihydrochloride] | 190 | 401 |  | 430 | 219 | 217 | 446 | robust accumulation of polyUb in dose dependent manner |  | mild synergy | 356 | 464 |

Source: article PMC11239005, “Preclinical studies of RA475, a guanidine-substituted spirocyclic candidate RPN13/ADRM1 inhibitor for treatment of ovarian cancer” (PLOS ONE, 2024)
